US5185366A, “Method for treatment and prevention of diseases caused by enveloped viruses, including herpes simplex virus types 1 and 2 diseases, using 3,4-dihydroxy-2H-benzopyran-2H-one” (Ohio State University Research Foundation, priority 1990, dated 1993)
Read-outs that look alike come from different tables or passages of the source.

Legend:
HSV-1 = test: Extracellular activity, inhibition of plaque forming units, HSV-1; conditions: for extracellular antiviral activity: HSV-1, 10 μM; for Plaque Forming Units Mean ± SD: extracellular
Poliovirus-2 = test: organism not typed; type: cell-based
VSV = test: microbe, parasite or virus in culture; type: cell-based, Vesicular stomatitis virus
HSV-2 [1] = test: HSV-2 plaque size, extracellular treatment; type: cell-based, Herpes simplex virus type 2; conditions: for Mean plaque diameter (±SD), Treated: extracellularly; for reduction in plaque size: virus treated extracellularly
[2] = test system: Buffalo green monkey kidney (BGM 70) cells; test: [3H]-thymidine uptake cytotoxicity; type: cell-based; conditions: for inhibition at 0.4 µM / inhibition at 1.6 µM / inhibition at 2.5 µM / inhibition at 10 µM: Chlorocebus sabaeus, read-out: % Inhibition of [3H]-Thymidine Incorporated; for inhibition at 0.4 µM: 0.4 μmol/L; for inhibition at 1.6 µM: 1.6 μmol/L; for inhibition at 2.5 µM: 2.5 μmol/L; for inhibition at 10 µM: 10.0 μmol/L; for toxicity ([3H]-thymidine uptake and/or cell growth): at 10 μM
HSV-2 [3] = test: Intracellular activity, inhibition of plaque forming units, HSV-2; type: cell-based, Herpes simplex virus type 2; conditions: for intracellular antiviral activity: HSV-2, 10 μM
[4] = listed as 3,4-dihydroxy-2H-1-benzopyran-2-one

**Q.** What does the source list for `O=c1oc2ccccc2c(O)c1O` [Compound 5, 3,4-dihydroxy-2H-1-benzopyran-2-one]?
**A.** extracellular antiviral activity (HSV-1): shows both intra- and extra- cellular antiviral activity; extracellular antiviral activity (HSV-1; [4]): exhibits both intracellular and extracellular activity; inhibition at 10 µM (HSV-1; Human alphaherpesvirus 1, extracellular, HSV-1 + 1 × Cmpd (10 μM), relative viral conc 10): 82%; inhibition at 10 µM (HSV-1; Human alphaherpesvirus 1, extracellular, HSV-1 + 1 × Cmpd (10 μM), relative viral conc 100): 76%; inhibition at 20 µM (HSV-1; Human alphaherpesvirus 1, extracellular, HSV-1 + 2 × Cmpd (20 μM), relative viral conc 10): 98%; inhibition at 20 µM (HSV-1; Human alphaherpesvirus 1, extracellular, HSV-1 + 2 × Cmpd (20 μM), relative viral conc 100): 95%; inhibition at 10 µM (HSV-1; Human alphaherpesvirus 1, read-out: % Inhibition of Plaque Forming Units, Extracellularly, HSV-1, 10 μM): 76.4 ± 2.2%; inhibition at 10 µM (HSV-1; Human alphaherpesvirus 1, read-out: reduction (PFU), extracellularly, HSV-1, 10 μM level, P<0.01): 76 to 98%; Plaque Forming Units Mean ± SD (HSV-1; HSV-1 + 1 × Cmpd (10 μM), relative viral conc 10): 2.6 ± 1.6; Plaque Forming Units Mean ± SD (HSV-1; HSV-1 + 1 × Cmpd (10 μM), relative viral conc 100): 40.6 ± 3.8; Plaque Forming Units Mean ± SD (HSV-1; HSV-1 + 2 × Cmpd (20 μM), relative viral conc 10): 0.3 ± 0.5; Plaque Forming Units Mean ± SD (HSV-1; HSV-1 + 2 × Cmpd (20 μM), relative viral conc 100): 9.3 ± 1.5; intracellular antiviral activity (Poliovirus-2; poliovirus-2, n=2): no antiviral activity; inhibition at 10 µM (Poliovirus-2; read-out: % Inhibition of Plaque Forming Units, Intracellularly): 2.1%; extracellular antiviral activity (VSV; VSV, n=2): no antiviral activity; inhibition at 10 µM (VSV; Vesicular stomatitis virus, read-out: % Inhibition of Plaque Forming Units, Extracellularly): 0%; inhibition at 10 µM (HSV-2 [1]; Human alphaherpesvirus 2, extracellularly, 10 μM, relative viral conc 1, read-out: % Inhib (mean plaque diameter)): 6%; inhibition at 10 µM (HSV-2 [1]; Human alphaherpesvirus 2, extracellularly, 10 μM, relative viral conc 10, read-out: % Inhib (mean plaque diameter)): 1%; inhibition at 20 µM (HSV-2 [1]; Human alphaherpesvirus 2, extracellularly, 20 μM, relative viral conc 10, read-out: % Inhib (mean plaque diameter)): 1%; Mean plaque diameter (±SD), Treated (HSV-2 [1]; 10 μM, relative viral conc 1): 449 ± 70 micrometers; Mean plaque diameter (±SD), Treated (HSV-2 [1]; 10 μM, relative viral conc 10): 500 ± 100 micrometers; Mean plaque diameter (±SD), Treated (HSV-2 [1]; 20 μM, relative viral conc 10): 486 ± 80 micrometers; reduction in plaque size (HSV-2 [1]; 10 μM): no significant reduction; reduction in plaque size (HSV-2 [1]; 10 μM, listed as 3,4-dihydroxy-2H-1-benzopyran-2-one): no reduction in plaque size; inhibition at 0.4 µM ([2]; 24 h): 0%; inhibition at 1.6 µM ([2]; 24 h): 0%; inhibition at 2.5 µM ([2]; 24 h): 0%; inhibition at 10 µM ([2]; 24 h): 28.4 ± 7.6%; inhibition at 0.4 µM ([2]; 48 h): 0%; inhibition at 1.6 µM ([2]; 48 h): 0%; inhibition at 2.5 µM ([2]; 48 h): 0%; inhibition at 10 µM ([2]; 48 h): 26.3 ± 6.3%; inhibition at 0.4 µM ([2]; 72 h): 0%; inhibition at 1.6 µM ([2]; 72 h): 0%; inhibition at 2.5 µM ([2]; 72 h): 0%; inhibition at 10 µM ([2]; 72 h): 0%; toxicity ([3H]-thymidine uptake and/or cell growth) [2]: no toxicity; toxicity ([3H]-thymidine uptake and/or cell growth) [2, 4]: non-toxic; intracellular antiviral activity (HSV-2 [3]): shows both intra- and extra- cellular antiviral activity; intracellular antiviral activity (HSV-2 [3]; [4]): exhibits both intracellular and extracellular activity; inhibition at 10 µM (HSV-2 [3]; Human alphaherpesvirus 2, 10 μM, one experiment, n=3 wells, P<0.07, read-out: inhibition (PFU), virus-infected cells): 26 ± 4%; inhibition at 10 µM (HSV-2 [3]; Human alphaherpesvirus 2, HSV-2, 10 μM (Table IV), read-out: % Inhibition of Plaque Forming Units, Intracellularly): 36 ± 4.7%; inhibition at 10 µM (HSV-2 [3]; Human alphaherpesvirus 2, HSV-2, 10 μM, P<0.01, read-out: inhibition (PFU), intracellularly): 25 to 39%; inhibition at 10 µM (HSV-2 [3]; Human alphaherpesvirus 2, HSV-2, 10.0 μmol/L, read-out: % Inhibition of PFU, IA (intracellular activity)): 36%
